How the values were obtained:
[1] = tested on: poly A–poly U (pApU, AU-RNA) (RNA, polymer) A/U; assay: UV melting at 260 nm; conditions: Na+ (sodium cacodylate, I = 0.05 M); pH 7; ratio [dye]/[polynucleotide] = 0.1; error ±0.5 °C; per base
[2] = tested on: poly A–poly U (pApU, AU-RNA) (RNA, polymer) A/U; assay: fluorimetric titration, Scatchard fit; conditions: Na+ (sodium cacodylate, I = 0.05 M); pH 7.0, 25 °C; dye 50 nM; n fixed at 0.2; polynucleotide as phosphate; per base
[3] = tested on: poly dAdT–poly dAdT (poly(dAdT)2, AT-DNA) (DNA, polymer) AT; assay: CD titration (induced CD); conditions: Na+ (sodium cacodylate, I = 0.05 M), pH 7
[4] = tested on: poly dGdC–poly dGdC (poly(dGdC)2, GC-DNA) (DNA, polymer) GC; assay: CD titration (induced CD); conditions: Na+ (sodium cacodylate, I = 0.05 M), pH 7
[5] = ratio [dye]/[polynucleotide] = 0.1 and 0.5, negative ICD at 308–324 nm

Row | SMILES | ΔTm [1] | log Ks [2] | binding ([3]; ratio [dye]/[polynucleotide] = 0.5, weaker ICD than GC-DNA) | binding ([4]; ratio [dye]/[polynucleotide] = 0.5, strong negative ICD at 325 nm) | binding [3, 5] | binding [4, 5]
1 | C[n+]1ccc(/C=C/c2cc(/C=C/c3cc[n+](C)cc3)c(/C=C/c3cc[n+](C)cc3)cc2/C=C/c2cc[n+](C)cc2)cc1 | +6.4 °C | 8.2 | – | – | – | –
2 | CCCC[n+]1ccc(/C=C/c2cc(/C=C/c3cc[n+](CCCC)cc3)cc(/C=C/c3cc[n+](CCCC)cc3)c2)cc1 | +1.5 °C | 8.7 | – | – | – | –
3 | C[n+]1ccc(/C=C/c2cc(/C=C/c3cc[n+](C)cc3)cc(/C=C/c3cc[n+](C)cc3)c2)cc1 | +8.5 °C | 8.7 | – | – | – | –
4 | C#CC[N+](C)(C)c1ccc(/C=C/c2cc(/C=C/c3ccc([N+](C)(C)CC#C)cc3)c(/C=C/c3ccc([N+](C)(C)CC#C)cc3)cc2/C=C/c2ccc([N+](C)(C)CC#C)cc2)cc1 | +10.4 °C | 8.9 | – | – | – | –
5 | C[N+](C)(C)c1ccc(/C=C/c2cc(/C=C/c3ccc([N+](C)(C)C)cc3)c(/C=C/c3ccc([N+](C)(C)C)cc3)cc2/C=C/c2ccc([N+](C)(C)C)cc2)cc1 | +12.5 °C | 8.6 | – | – | – | –
6 | CCCC[n+]1ccc(/C=C/c2cc(/C=C/c3cc[n+](CCCC)cc3)c(/C=C/c3cc[n+](CCCC)cc3)cc2/C=C/c2cc[n+](CCCC)cc2)cc1 | +1.7 °C | 7.6 | – | – | – | –

Continued, values first:

Row | ΔTm [1] | log Ks [2] | binding ([3]; ratio [dye]/[polynucleotide] = 0.5, weaker ICD than GC-DNA) | binding ([4]; ratio [dye]/[polynucleotide] = 0.5, strong negative ICD at 325 nm) | binding [3, 5] | binding [4, 5] | SMILES
7 | +18.1 °C | 8.6 | – | – | – | – | C#CC[N+](C)(C)c1ccc(/C=C/c2cc(/C=C/c3ccc([N+](C)(C)CC#C)cc3)cc(/C=C/c3ccc([N+](C)(C)CC#C)cc3)c2)cc1
8 | +23.2 °C | 8.9 | yes | yes | – | – | C[N+](C)(C)c1ccc(/C=C/c2cc(/C=C/c3ccc([N+](C)(C)C)cc3)cc(/C=C/c3ccc([N+](C)(C)C)cc3)c2)cc1
9 | +5.1 °C | 8.9 | – | – | yes | yes | CCCC[N+](C)(CCCC)c1ccc(/C=C/c2cc(/C=C/c3ccc([N+](C)(CCCC)CCCC)cc3)cc(/C=C/c3ccc([N+](C)(CCCC)CCCC)cc3)c2)cc1
10 | 0 °C | 8.6 | – | – | – | – | CCCC[N+](C)(CCCC)c1ccc(/C=C/c2cc(/C=C/c3ccc([N+](C)(CCCC)CCCC)cc3)c(/C=C/c3ccc([N+](C)(CCCC)CCCC)cc3)cc2/C=C/c2ccc([N+](C)(CCCC)CCCC)cc2)cc1

Source: paper PMC11171523 (2024)
